From PMC8305101, “Synthesis and Cytotoxicity Evaluation of Spirocyclic Bromotyrosine Clavatadine C Analogs” (Marine Drugs, 2021)
Several values for one entry are separate records, joined by “and”; a condition that tells them apart may be missing. Equal values may be shown once. Read-outs that look alike come from different tables or passages of the source.

Tests used:
[1] = tested on: human malignant melanoma A-375 cell line; assay: Cytotoxicity in A-375 melanoma cells (CellTiter-Glo ATP viability); assay type: cell-based; conditions: for CC50 / cytotoxicity at 50 µM: Homo sapiens; for CC50: read-out: CC50 (µM) in A-375 Cells; for Selectivity Index (SI): ratio of CC50 values between Hs27 fibroblasts and A-375 melanoma cells, SD in parentheses
Protocol: (§1) Analysis of selectivity to cancer cells. The cells were seeded to white frame and clear bottom 96-well plates (Perkin Elmer) at a density of 10,000 cells/well for the human malignant melanoma A-375 cell line (ATCC CRL-1619) and 7500 cells/well for the human skin fibroblast Hs27 cell line (ATCC CRL-1634). The cells were grown at 37 °C, 5% CO2 until they reached 70–80% confluence (approximately 24 h). Stock solutions of test compounds and a positive control (camptothecin, Sigma-Aldrich, St. Louis, MO, USA) were prepared in DMSO and diluted into the assay medium (growth medium with 5% FBS) to the final concentration. Final DMSO concentration was 0.5% in all samples. The culture medium was removed from the plate and compounds added, 200 µL/well. After a 48-h incubation, the amount of ATP, which is directly proportional to the number of viable cells present in culture, was quantified using CellTiter-Glo® Luminescent Cell Viability kit (Promega, Madison, WI, USA), according to manufacturer’s instructions. Origin Graphing and Analysis, version 9.55 (OriginLab, Northampton, MA, USA), was used for determination of CC50 values. The cancer cell selectivity index was calculated as a ratio of CC50 values between Hs27 fibroblasts and A-375 melanoma cells. Standard deviation of selectivity indices was calculated using Equation (1) (1) σ(x¯/y¯)=(σ(x)/x¯)^2+(σ(y)/y¯)^2

[2] = Cytotoxicity in Hs27 normal skin fibroblasts (CellTiter-Glo ATP viability); assay type: cell-based; conditions: human, 48-h incubation, mean (SD) of 2–3 independent experiments in triplicate
Protocol: as §1

[3] = A-375, 48 h, read-out: Primary Test Results (Cytotoxicity % at 50 µM in A-375 Cells), 50 µM, A-375 cells, 48-h incubation, single experiment with three technical replicates
[4] = read-out: CC50 (µM) in Hs27 Cells
[5] = 50 µM, A-375 cells, 48-h incubation, single experiment with three technical replicates

Compound | CC50 ([1]; A-375, 48 h) [µM] | cytotoxicity at 50 µM [1, 3] [%] | Selectivity Index (SI) [1] | CC50 at 48 h [2, 4] [µM] | Primary Test Results (Cytotoxicity % at 50 µM in A-375 Cells) [1, 5] | cytotoxicity at 50 µM ([1]; 50 µM, A-375 cells, 48-h incubation, single experiment with three technical replicates, read-out: Primary Test Results (Cytotoxicity % at 50 µM in A-375 Cells)) [%] | CC50 ([1]; A-375 cells, 48-h incubation, mean (SD) of 2–3 independent experiments in triplicate) [µM] | CC50 at 48 h ([2]; Hs27 skin fibroblast cells) [µM]
Cn1nc(-c2ccc(Cl)cc2)cc1NC(=O)C1=NOC2(C=CC(=O)C=C2)C1 [Compound 40, N-[3-(4-Chlorophenyl)-1-methyl-1H-pyrazol-5-yl]-8-oxo-1-oxa-2-azaspiro[4.5]deca-2,6,9-triene-3-carboxamide] | 0.5 | 99.9 | 1.0 (0.8) | 0.5 |  |  |  | 
COc1ccc(NC(=O)C2=NOC3(C=C(Br)C(=O)C(Br)=C3)C2)cc1Cl [Compound 21, 7,9-Dibromo-N-(3-chloro-4-methoxyphenyl)-8-oxo-1-oxa-2-azaspiro[4.5]deca-2,6,9-triene-3-carboxamide] | 2.3 | 101 | 2.2 (0.3) | 5 |  |  |  | 
O=C(Nc1cc(Cl)cc(Cl)c1)C1=NOC2(C=C(Br)C(=O)C(Br)=C2)C1 [Compound 19, 7,9-Dibromo-N-(3,5-dichlorophenyl)-8-oxo-1-oxa-2-azaspiro[4.5]deca-2,6,9-triene-3-carboxamide] | 9.2 | 94.9 | 0.7 (0.5) | 6.8 |  |  |  | 
COc1ccc(NC(=O)C2=NOC3(C=CC(=O)C=C3)C2)cc1Cl [Compound 20, N-(3-Chloro-4-methoxyphenyl)-8-oxo-1-oxa-2-azaspiro[4.5]deca-2,6,9-triene-3-carboxamide] | 1.2 | 100 | 1.3 (0.5) | 1.5 |  |  |  | 
O=C1C=CC2(C=C1)CC(C(=O)N1CCOCC1)=NO2 [Compound 15, 3-(Morpholine-4-carbonyl)-1-oxa-2-azaspiro[4.5]deca-2,6,9-trien-8-one] | 3.8 | 96.1 | 0.7 (0.2) | 2.5 |  |  |  | 
7,9-Dibromo-8-oxo-N’-picolinoyl-1-oxa-2-azaspiro[4.5]deca-2,6,9-triene-3-carbohydrazide [Compound 39] |  |  |  |  | 75.2% |  |  | 
O=C1C=CC2(C=C1)CC(C(=O)NCc1cccnc1)=NO2 [Compound 35, 8-Oxo-N-(pyridin-3-ylmethyl)-1-oxa-2-azaspiro[4.5]deca-2,6,9-triene-3-carboxamide] | 1.1 | 97.5 | 2.3 (0.1) | 2.5 |  |  |  | 
O=C(Nc1cccnc1)C1=NOC2(C=C(Br)C(=O)C(Br)=C2)C1 [Compound 27, 7,9-Dibromo-8-oxo-N-(pyridin-3-yl)-1-oxa-2-azaspiro[4.5]deca-2,6,9-triene-3-carboxamide] | 3 | 101 | 2.2 (0.5) | 6.6 |  |  |  | 
O=C1C=CC2(C=C1)CC(C(=O)Nc1cccnc1)=NO2 [Compound 26, 8-Oxo-N-(pyridin-3-yl)-1-oxa-2-azaspiro[4.5]deca-2,6,9-triene-3-carboxamide] | 2 | 99.2 | 1.0 (0.8) | 1.9 |  |  |  | 
O=C(Nc1ccc(C(F)(F)F)nc1)C1=NOC2(C=C(Br)C(=O)C(Br)=C2)C1 [Compound 31, 7,9-Dibromo-8-oxo-N-[6-(trifluoromethyl)pyridin-3-yl]-1-oxa-2-azaspiro[4.5] deca-2,6,9-triene-3-carboxamide] | 5.3 | 98.6 | 0.4 (0.1) | 2.1 |  |  |  | 
O=C(NCc1cccnc1)C1=NOC2(C=C(Br)C(=O)C(Br)=C2)C1 [Compound 36, 7,9-Dibromo-8-oxo-N-(pyridin-3-ylmethyl)-1-oxa-2-azaspiro[4.5]deca-2,6,9-triene-3-carboxamide] | 3.4 | 101 | 1.8 (0.2) | 6.1 |  |  |  | 
COc1ccc(CNC(=O)C2=NOC3(C=CC(=O)C=C3)C2)cc1 [Compound 23, N-(4-Methoxybenzyl)-8-oxo-1-oxa-2-azaspiro[4.5]deca-2,6,9-triene-3-carboxamide] | 1.2 | 100 | 1.2 (0.6) | 1.4 |  |  |  | 
CNCCCOc1c(Br)cc(CCNC(=O)/C(Cc2cc(Br)c(OC)c(Br)c2)=N/O)cc1Br [Purpurealidin I 3, Purpurealidin I, reference compound] |  |  | 1.3 (0.1) |  |  | 98.9 | 3.7 | 4.7
O=C(NCCc1cccnc1)C1=NOC2(C=C(Br)C(=O)C(Br)=C2)C1 [Compound 34, 7,9-Dibromo-8-oxo-N-[2-(pyridin-3-yl)ethyl]-1-oxa-2-azaspiro[4.5]deca-2,6,9-triene-3-carboxamide] | 5.1 | 97 | 1.7 (0.6) | 8.8 |  |  |  | 
COc1ccc(CNC(=O)C2=NOC3(C=C(Br)C(=O)C(Br)=C3)C2)cc1 [Compound 24, 7,9-Dibromo-N-(4-methoxybenzyl)-8-oxo-1-oxa-2-azaspiro[4.5]deca-2,6,9-triene-3-carboxamide] | 3.5 | 97.8 | 0.9 (0.3) | 3.3 |  |  |  | 
CC(C)N(C)C(=O)C1=NOC2(C=C(Br)C(=O)C(Br)=C2)C1 [Compound 14, 7,9-Dibromo-N-isopropyl-N-methyl-8-oxo-1-oxa-2-azaspiro[4.5]deca-2,6,9-triene-3-carboxamide] | 7.2 | 99.9 |  | 7.8 |  |  |  | 
CN(C)C(=O)C1=NOC2(C=C(Br)C(=O)C(Br)=C2)C1 [Compound 13, 7,9-Dibromo-N,N-dimethyl-8-oxo-1-oxa-2-azaspiro[4.5]deca-2,6,9-triene-3-carboxamide] | 3.7 | 99.8 |  | 7.2 |  |  |  | 
O=C1C=CC2(C=C1)CC(C(=O)NCCc1c[nH]c3ccccc13)=NO2 [Compound 22, N-[2-(1H-Indol-3-yl)ethyl]-8-oxo-1-oxa-2-azaspiro[4.5]deca-2,6,9-triene-3-carboxamide] | 0.7 | 99.8 | 1.0 (0.3) | 0.7 |  |  |  | 
O=C1C=CC2(C=C1)CC(C(=O)Nc1ccccn1)=NO2 [Compound 28, 8-Oxo-N-(pyridin-2-yl)-1-oxa-2-azaspiro[4.5]deca-2,6,9-triene-3-carboxamide] | 1.9 | 99.6 | 0.8 (0.4) | 1.5 |  |  |  | 
O=C1C=CC2(C=C1)CC(C(=O)NNC(=O)c1ccccn1)=NO2 [Compound 37, 8-Oxo-N’-picolinoyl-1-oxa-2-azaspiro[4.5]deca-2,6,9-triene-3-carbohydrazide] | 2.5 | 89.3 | 2.4 (0.3) | 6 |  |  |  | 
N=C(N)NCCCCNC(=O)C1=NOC2(C=CC(=O)C=C2)C1 [Compound 11, N-(4-Guanidinobutyl)-8-oxo-1-oxa-2-azaspiro[4.5]deca-2,6,9-triene-3-carboxamide] |  |  |  |  | less than 25% and −8.2% |  |  | 
O=C(NCCc1ccccn1)C1=NOC2(C=C(Br)C(=O)C(Br)=C2)C1 [Compound 33, 7,9-Dibromo-8-oxo-N-[2-(pyridin-2-yl)ethyl]-1-oxa-2-azaspiro[4.5]deca-2,6,9-triene-3-carboxamide] | 3.6 | 98.9 | 1.9 (0.6) | 6.6 |  |  |  | 
O=C(Nc1ccc(C(F)(F)F)cn1)C1=NOC2(C=C(Br)C(=O)C(Br)=C2)C1 [Compound 30, 7,9-Dibromo-8-oxo-N-[5-(trifluoromethyl)pyridin-2-yl]-1-oxa-2-azaspiro[4.5]-deca-2,6,9-triene-3-carboxamide] | 3.6 | 98.1 | 0.6 (0.2) | 2.3 |  |  |  | 
O=C(Nc1ccccn1)C1=NOC2(C=C(Br)C(=O)C(Br)=C2)C1 [Compound 29, 7,9-Dibromo-8-oxo-N-(pyridin-2-yl)-1-oxa-2-azaspiro[4.5]deca-2,6,9-triene-3-carboxamide] | 2.4 | 101 | 2.4 (0.4) | 5.8 |  |  |  | 
O=C1C=CC2(C=C1)CC(C(=O)NNC(=O)CN1CCOCC1)=NO2 [Compound 17, N’-(2-Morpholinoacetyl)-8-oxo-1-oxa-2-azaspiro[4.5]deca-2,6,9-triene-3-carbohydrazide] |  | < 25 |  |  | 20.8% |  |  | 
